# According to article PMC6776562, “Inhibition of Rac1-dependent forgetting alleviates memory deficits in animal models of Alzheimer’s disease” (Protein & Cell, 2019):
# Entries after “also recorded” stand apart in the source; their conditions may differ.
# Columns and labels:
# [1] = test system: APP/PS1 mice; experiment: Morris water maze (MWM) spatial learning in AD mice; type: in vivo, mouse; details: APP/PS1 mice (eight-month-old); oral CS7171 50 mg/kg, CS7170 50 mg/kg, JKF-034 40 mg/kg once per day
# Experimental: Mice were treated with EHop-016 (10 mg/kg), CS7170 (50 mg/kg), CS7171 (50 mg/kg), and JKF-034 (40 mg/kg). These drugs were dissolved in saline (0.9% NaCl) containing 0.5% Tween-80 (Sigma P4780). Each mouse received 200 μL of the solution by intragastric administration once per day (administered at 9:00 am). The drug administration was started seven days before the beginning of the Morris water maze (MWM) task and was continued until the end of the assay. All control groups were fed with vehicle solution.
# The MWM test, a classic paradigm used to study spatial reference memory, was performed (Vorhees and Williams, [2006]). Briefly, a circular polypropylene water tank (120 cm in diameter) was filled with opaque water and milk (20 °C ± 1 °C) and a transparent platform (15 cm diameter) was submerged (2 cm below the water surface) in the center of one of the four virtually divided quadrants. Distal cues were fixed on the wall of the tank as spatial references. For the classic training paradigm (Figs. 2 and 6), mice were allowed to find the platform within 60 s and to remain on it for at least 5 s. For the modified training paradigm (Fig. 3A), mice were trained over 5 consecutive sessions with a 1-h intervals within one day. After training, mice were returned to their home cages and the memory of the location of the platform was tested at 6 h after training (Fig. 3C–D). A mouse behavior tracking software (ANY-maze software) was used to record data automatically.
# [2] = Pharmacokinetics study in CD1 mice; type: in vivo; details: for AUC0-infinity / AUC0-t / T1/2 / Tmax / F (bioavailability): CD1 mice; for AUC0-infinity / AUC0-t / T1/2 / Tmax: plasma, estimated value, n = 3; for AUC0-infinity / AUC0-t / T1/2: P.O 50 mg/kg CS7171, 40 mg/kg JKF-034 (I.V 10 and 2.5 mg/kg), route of the parameter not stated; for Tmax: P.O 50 mg/kg CS7171, 40 mg/kg JKF-034; for F (bioavailability): P.O 50 mg/kg vs I.V 10 mg/kg CS7171, P.O 40 mg/kg vs I.V 2.5 mg/kg JKF-034
# Experimental: For the CS7171 and JKF-034 pharmacokinetics (PK) assays, 30 CD1 mice were purchased from JH Laboratory Animal Co. LTD (Qualification No: SCXK (SH) 2017-001220170012002565). A total of 18 CD1 mice were grouped for intravenous injection (I.V) with 10 mg/kg CS7171 and 2.5 mg/kg JKF-034. Sampling was performed at 0.083, 0.25, 0.5, 1, 3, 6 and 24 h after administration. A total of 12 CD1 mice were grouped for oral administration (P.O) of 50 mg/kg CS7171 and 40 mg/kg JKF-034. Sampling was performed at 0.25, 0.5, 1, 3, 6 and 24 h after administration. The blood samples were maintained in wet ice first and centrifuged to obtain plasma within 15 min post-sampling. Subsequently, the samples were subjected to LC-MS/MS analysis.
# [3] = In vitro metabolic stability in mouse liver microsomes; type: in vitro ADME
# Experimental: (§1) Measurements of metabolic stability can be performed with liver microsomes, which are known to contain the major drug-metabolizing enzymes and UDP-glucuronosyltransferase (Baranczewski et al., [2006]). The in vitro metabolic stability levels of CS7171 and JKF-034 were measured using human, monkey, and mouse liver microsomes. The metabolic half-time (T1/2) and intrinsic clearance (Clint) were assayed using LC-MS analysis. Ketanserin is a potent, orally effective antagonist of endogenous serotonin. Its pharmacological profile is well studied (Brogden and Sorkin, [1990]). In this study, we used ketanserin as a control. If the T1/2 of the tested compound was 30–120 min, the compound was considered to show moderate metabolism in liver microsomes. If the T1/2 value was less than 30 min, the compound was considered to be susceptible to metabolism in liver microsomes.
# [4] = In vitro metabolic stability in monkey liver microsomes; type: in vitro ADME
# Experimental: as §1
# [5] = In vitro metabolic stability in liver microsomes (species not separated); type: in vitro ADME, human, monkey, and mouse; details: all species of Table 4
# Experimental: as §1
# [6] = test system: RhoA; experiment: RhoA activity (RhoA-GTP) by Western blot after drug administration; type: in vivo; details: 7-month-old APP/PS1 mice; two weeks of P.O administration
# Experimental: (§2) The hippocampal tissues from human subjects and mice were harvested and stored in a liquid nitrogen tank for biochemical assay. The tissues were homogenized in cold lysis buffer (Merck-Millipore, 20-168). The insoluble debris were removed after centrifugation at 13,000 rpm (for 10 min, at 4 °C). For GTP-bound Rac/Cdc42, lysates were incubated with GST-tagged PAK (p21-activated kinase)-PBD agarose beads (Cytoskeleton, PAK02) overnight at 4 °C. On the second day, the beads were washed three times with lysis buffer before subjecting them to SDS-PAGE (15%) and transferring them onto nitrocellulose membranes (Millipore, HATF00010). The membranes were incubated with primary antibodies (for Rac1: BD Transduction Laboratories, #610650, 1:2,000 dilution; for Cdc42, Santa Cruz Biotechnology, lot No. sc-8401, 1:500 dilution) overnight at 4 °C and with HRP-conjugated goat anti-mouse IgG (Cell Signaling Technology, #7076) for 1 h at room temperature. Intensities of the detected bands were analyzed using ImageJ software (National Institutes of Health). The total amount of Rac1 in the lysate was detected using a routine Western blot procedure. RhoA-GTP levels were measured by using the Rho-GTP monoclonal antibody (New East, lot No. 26904, Dilution: 1:1,000). […] Data information: All values are expressed as mean r SEM.
# [7] = test system: Cdc42; experiment: Cdc42 activity (Cdc42-GTP) by Western blot after drug administration; type: in vivo; details: 7-month-old APP/PS1 mice; two weeks of P.O administration
# Experimental: as §2
# [8] = test system: Aβ42; experiment: Aβ42 level by Western blot (6E10 antibody) after drug administration; type: in vivo, APP/PS1 mice; details: for level of Aβ42 monomer: 7-month-old APP/PS1 mice, two weeks of P.O administration
# Experimental: as §2, with “1:1,000). Information regarding the other antibodies used is as follows: anti-RhoA (67B9), Cell Signaling, lot No. #2117, dilution: 1:1,000; anti-Actin, Clone C4, Millipore, lot No. #3018859, dilution: 1:2,000; anti-Amyloid 1-42 6E10, BioLegend, lot No. 803001, dilution: 1:1,000; anti-Phospho-PAK1 ([…])/PAK2 ([…]), Cell Signaling, lot No. #2606, dilution: 1:1,000. page 2: A Representative […] blot of AE42 detected by AE42 monoclonal antibody (6E10) after two weeks of administration (P.O) of CS7171 and JKF-034 in 7-month-old APP/PS1 mice. B The level of AE42 monomer was decreased by JKF-034. […] D Representative […] blot of total RhoA, total Cdc42, RhoA-GTP, and Cdc42-GTP after two weeks of drug administration (P.O) of CS7171 and JKF-034 in 7-month-old APP/PS1 mice.” for “1:1,000).”
Compound,MWM learning deficit / spatial memory [1],metabolic half-time (T1/2) of JKF-034 relative to CS7171 ([2]; CD1 mice PK),AUC0-infinity [2],AUC0-t [2],T1/2 [2] [min],Tmax [2] [min],F (bioavailability) [2] [%],Clint [3],T1/2 [3] [min],Clint [4] [mL/min/kg],T1/2 [4] [min],T1/2 in liver microsomes [5],RhoA activity [6],Cdc42 activity [7],level of Aβ42 monomer [8],"Aβ42 accumulation ([8]; APP/PS1 mice, Fig. S4A–C)"
O=S(=O)(c1ccccc1)N1CCN(Cc2ccccc2)CC1 [JKF-034],effective; also recorded: rescued,about ten times higher than that of CS7171,"1,692 h*ng/mL","1,262 h*ng/mL",551,30,19.3,"4,702.82 mL/min/kg",1.16,401.14,5.05,less than 30 min,did not affect,did not affect,decreased,reduction
O=C1NN(c2ccc(Cl)c(Cl)c2)C(=O)C1=Cc1ccc(O)c(N(O)O)c1 [CS7171],mitigated learning deficits; also recorded: rescued; also recorded: effective,,"4,160 h*ng/mL","4,101 h*ng/mL",56.6,15,28.2,477.87 mL/min/kg,11.42,229.15,8.85,less than 30 min,did not affect,did not affect,did not aff ect,
